In BindingDB's records for doi:10.1016/s0014-2999(99)00610-x (Hungarian Academy of Sciences, 1999):
Where “and” joins values, the source holds several entries; their conditions need not be identical. Identical values can stand only once. Where a SMILES comes first, the peptide text is derived from it. [ ]: non-standard residue; d: D form. Tic = O=C(O)[C@@H]1Cc2ccccc2CN1

Key:
[1] = biological target: Kappa-type opioid receptor (Rattus norvegicus, UniProt P34975)
Mu-type opioid receptor [2] = biological target: Mu-type opioid receptor (Cavia porcellus, UniProt P97266)
Mu-type opioid receptor (Cavia porcellus, UniProt P97266), sequence (P97266 whole entry): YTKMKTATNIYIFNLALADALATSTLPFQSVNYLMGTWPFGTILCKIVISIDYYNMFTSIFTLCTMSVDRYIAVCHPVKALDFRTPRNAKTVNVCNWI

Mu-type opioid receptor [3] = biological target: Mu-type opioid receptor (Rattus norvegicus, UniProt P33535)
Mu-type opioid receptor (Rattus norvegicus, UniProt P33535), sequence (P33535 whole entry): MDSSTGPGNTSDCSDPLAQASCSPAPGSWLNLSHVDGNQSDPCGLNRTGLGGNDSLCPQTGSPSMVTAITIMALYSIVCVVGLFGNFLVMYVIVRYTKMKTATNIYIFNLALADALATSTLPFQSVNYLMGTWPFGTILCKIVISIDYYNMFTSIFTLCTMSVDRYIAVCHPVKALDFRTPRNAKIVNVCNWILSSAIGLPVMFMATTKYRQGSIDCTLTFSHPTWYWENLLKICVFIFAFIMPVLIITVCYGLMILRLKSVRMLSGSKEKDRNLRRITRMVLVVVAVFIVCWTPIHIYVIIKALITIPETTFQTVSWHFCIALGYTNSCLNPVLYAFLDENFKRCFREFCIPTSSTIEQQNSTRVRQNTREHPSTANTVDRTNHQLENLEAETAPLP

[4] = biological target: Kappa-type opioid receptor (Cavia porcellus, UniProt P41144)
Kappa-type opioid receptor (Cavia porcellus, UniProt P41144), sequence (P41144 whole entry): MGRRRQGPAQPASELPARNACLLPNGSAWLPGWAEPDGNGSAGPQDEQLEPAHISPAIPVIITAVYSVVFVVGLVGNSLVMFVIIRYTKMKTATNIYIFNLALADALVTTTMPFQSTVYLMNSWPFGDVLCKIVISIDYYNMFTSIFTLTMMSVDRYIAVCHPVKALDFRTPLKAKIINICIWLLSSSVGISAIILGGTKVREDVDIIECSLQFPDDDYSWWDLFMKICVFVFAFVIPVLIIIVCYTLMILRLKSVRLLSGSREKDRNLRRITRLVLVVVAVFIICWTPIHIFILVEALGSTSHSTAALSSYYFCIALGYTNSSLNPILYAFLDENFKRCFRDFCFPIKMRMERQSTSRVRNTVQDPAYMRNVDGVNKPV

[5] = biological target: Delta-type opioid receptor (Rattus norvegicus, UniProt P33533)
Delta-type opioid receptor (Rattus norvegicus, UniProt P33533), sequence (P33533 whole entry): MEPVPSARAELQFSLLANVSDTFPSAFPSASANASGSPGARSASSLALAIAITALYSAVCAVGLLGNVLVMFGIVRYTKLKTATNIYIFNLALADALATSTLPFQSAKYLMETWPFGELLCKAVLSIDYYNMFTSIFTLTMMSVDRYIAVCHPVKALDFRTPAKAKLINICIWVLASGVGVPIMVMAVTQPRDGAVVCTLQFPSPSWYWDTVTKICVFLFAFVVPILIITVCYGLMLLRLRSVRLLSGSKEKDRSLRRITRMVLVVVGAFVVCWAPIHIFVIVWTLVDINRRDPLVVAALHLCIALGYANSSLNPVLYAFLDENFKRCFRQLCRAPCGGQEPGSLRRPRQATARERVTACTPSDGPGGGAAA

[6] = biological target: Delta-type opioid receptor (Sus scrofa, UniProt P79291)
Delta-type opioid receptor (Sus scrofa, UniProt P79291), sequence (P79291 whole entry): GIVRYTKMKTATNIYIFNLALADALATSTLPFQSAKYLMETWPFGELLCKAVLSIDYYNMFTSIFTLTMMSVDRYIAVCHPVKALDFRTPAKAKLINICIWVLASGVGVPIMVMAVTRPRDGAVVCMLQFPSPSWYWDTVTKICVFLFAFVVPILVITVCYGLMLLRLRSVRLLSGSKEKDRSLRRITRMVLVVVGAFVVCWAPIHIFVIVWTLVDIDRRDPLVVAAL

Kappa-type opioid receptor (Rattus norvegicus, UniProt P34975), sequence (P34975 whole entry): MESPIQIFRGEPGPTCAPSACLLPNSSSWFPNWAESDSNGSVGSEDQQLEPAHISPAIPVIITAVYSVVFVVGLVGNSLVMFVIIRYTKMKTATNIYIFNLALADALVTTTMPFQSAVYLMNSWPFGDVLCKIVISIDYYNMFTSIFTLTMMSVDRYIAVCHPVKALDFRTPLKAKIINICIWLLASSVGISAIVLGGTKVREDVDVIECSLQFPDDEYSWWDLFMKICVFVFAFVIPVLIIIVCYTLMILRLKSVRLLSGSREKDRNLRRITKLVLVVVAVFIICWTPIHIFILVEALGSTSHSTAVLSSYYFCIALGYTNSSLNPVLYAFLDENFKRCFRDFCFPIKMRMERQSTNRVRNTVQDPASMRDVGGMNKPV

Compound: COc1cccc2c1[C@]13CCN(CC4CC4)C(C2)[C@]1(OC)CCC(=O)C3
- Ki [1]: 2190 nM
- Ki (Mu-type opioid receptor [2]): 26.6 nM
- Ki (Mu-type opioid receptor [3]): 8.1 nM and 5.4 nM

Compound: C[C@@H](O)[C@H](NC(=O)[C@H]1NC(=O)[C@H]([C@@H](C)O)NC(=O)[C@H](CCCN=C(N)N)NC(=O)[C@@H](Cc2c[nH]c3ccccc23)NC(=O)[C@H](Cc2ccc(O)cc2)NC(=O)[C@@H](NC(=O)[C@H](N)Cc2ccccc2)CSSC1(C)C)C(N)=O
- Ki (Mu-type opioid receptor [2]): 48.1 nM
- Ki (Mu-type opioid receptor [3]): 43.8 nM

Compound: Oc1ccc2c3c1OC1c4[nH]c5c(c4CC4(O)CN(CCC314)C(C1CC1)C2)CC1(O)CN2CCC13c1c(ccc(O)c1OC53)CC2C1CC1 (stereo not given) [CAS_105618-26-6]
- Ki [1]: 172 nM
- Ki [4]: 770 nM

Compound: CN1CC[C@]23c4c5ccc(O)c4O[C@H]2[C@@H](O)CCC3[C@H]1C5 (stereo not given in full) [DIHYDROMORPHINE]
- Ki (Mu-type opioid receptor [2]): 6 nM

Compound: CC(C)C[C@H](NC(=O)[C@H](Cc1ccccc1)NC(=O)CNC(=O)[C@@H](CO)NC(=O)[C@@H](N)Cc1ccc(O)cc1)C(=O)N[C@H](C(=O)O)[C@@H](C)O [DSLET-OH]
- Ki [5]: 9.8 nM
- Ki [6]: 6.3 nM

Compound: N[C@@H](Cc1ccc(O)cc1)C(=O)N1Cc2ccccc2C[C@H]1C(=O)N[C@@H](Cc1ccccc1)C(=O)N[C@@H](Cc1ccccc1)C(=O)O [TIPP] (H-Y[Tic]FF-OH)
- Ki [5]: 2830 nM
- Ki [6]: 7060 nM

Compound: CC(C)[C@H](NC(=O)[C@H](CCC(=O)O)NC(=O)[C@H](Cc1ccccc1)NC(=O)[C@@H](C)NC(=O)[C@@H](N)Cc1ccc(O)cc1)C(=O)N[C@H](C(=O)NCC(N)=O)C(C)C [Tyr-D-Ala-Phe-Glu-Val-Val-GlyNH2]
- Ki [5]: 1190 nM
- Ki [6]: 2880 nM

Compound: C[C@@H](NC(=O)[C@@H](N)Cc1ccc(O)cc1)C(=O)NCC(=O)N(C)[C@@H](Cc1ccccc1)C(=O)NCCO [[tyrosyl-3,5-3H(N)]-D-Ala2-Mephe4-glyol5-enkephalin]
- Ki (Mu-type opioid receptor [2]): 2.6 nM
